Source: ChEMBL document CHEMBL4257506, “Design, synthesis and antimicrobial activity of usnic acid derivatives” (2018)

Legend:
Format in all cases: functional
Trichoderma viride = assay: Fungicidal activity against Trichoderma viride IAM 5061 by microdilution method
Aspergillus fumigatus = assay: Fungicidal activity against Aspergillus fumigatus ATCC 1022 by microdilution method
Penicillium ochrochloron = assay: Fungicidal activity against Penicillium ochrochloron ATCC 9112 by microdilution method
Talaromyces funiculosus = assay: Fungicidal activity against Penicillium funiculosum ATCC 36839 by microdilution method
Penicillium cyclopium = assay: Fungicidal activity against Penicillium verrucosum var. cyclopium food isolate by microdilution method
Aspergillus niger = assay: Fungicidal activity against Aspergillus niger by microdilution method
Aspergillus versicolor = assay: Fungicidal activity against Aspergillus versicolor ATCC 11730 by microdilution method
Aspergillus ochraceus = assay: Fungicidal activity against Aspergillus ochraceus by microdilution method

Row | Structure (SMILES) | MFC (Trichoderma viride) | MFC (Aspergillus fumigatus) | MFC (Penicillium ochrochloron) | MFC (Talaromyces funiculosus) | MFC (Penicillium cyclopium) | MFC (Aspergillus niger) | MFC (Aspergillus versicolor) | MFC (Aspergillus ochraceus)
1 | CC(=O)C1=C(O)C=C2Oc3c(C(C)=O)c(O)c(C)c(O)c3C2(C)C1=O (stereo not given) | 4.4 ×10⁻² mmol/ml | 69.8 ×10⁻² mmol/ml | 8.8 ×10⁻² mmol/ml | 8.8 ×10⁻² mmol/ml | 8.8 ×10⁻² mmol/ml | 8.8 ×10⁻² mmol/ml | 8.8 ×10⁻² mmol/ml | 4.4 ×10⁻² mmol/ml
2 | CC(=O)NCCN/C(C)=C1\C(=O)C=C2Oc3c(C(C)=O)c(O)c(C)c(O)c3[C@@]2(C)C1=O | 15.05 ×10⁻² mmol/ml | 7.53 ×10⁻² mmol/ml | 7.53 ×10⁻² mmol/ml | 7.53 ×10⁻² mmol/ml | 15.05 ×10⁻² mmol/ml | 15.05 ×10⁻² mmol/ml | 7.53 ×10⁻² mmol/ml | 15.05 ×10⁻² mmol/ml
3 | CC(=O)c1c(O)c(C)c(O)c2c1OC1=CC(=O)/C(=C(/C)NCCc3ccc(O)c(O)c3)C(=O)[C@@]12C | 2.09 ×10⁻² mmol/ml | 4.17 ×10⁻² mmol/ml | 4.17 ×10⁻² mmol/ml | 4.17 ×10⁻² mmol/ml | 4.17 ×10⁻² mmol/ml | 8.34 ×10⁻² mmol/ml | 4.17 ×10⁻² mmol/ml | 2.09 ×10⁻² mmol/ml
4 | CC(=O)c1c(O)c(C)c(O)c2c1OC1=CC(=O)/C(=C(/C)NCc3nc(N)n[nH]3)C(=O)[C@@]12C | 8.82 ×10⁻² mmol/ml | 4.41 ×10⁻² mmol/ml | 4.41 ×10⁻² mmol/ml | 4.41 ×10⁻² mmol/ml | 8.82 ×10⁻² mmol/ml | 4.41 ×10⁻² mmol/ml | 4.41 ×10⁻² mmol/ml | 8.82 ×10⁻² mmol/ml
5 | CC(=O)c1c(O)c(C)c(O)c2c1OC1=CC(=O)/C(=C(/C)NCc3noc(C4CCC(=O)N4)n3)C(=O)[C@@]12C (stereo not given in full) | 1.77 ×10⁻² mmol/ml | 3.54 ×10⁻² mmol/ml | 1.77 ×10⁻² mmol/ml | 1.77 ×10⁻² mmol/ml | 3.54 ×10⁻² mmol/ml | 3.54 ×10⁻² mmol/ml | 3.54 ×10⁻² mmol/ml | 3.54 ×10⁻² mmol/ml
6 | CC(=O)c1c(O)c(C)c(O)c2c1OC1=CC(=O)/C(=C(/C)NCCc3nc(C)no3)C(=O)[C@@]12C | 1.87 ×10⁻² mmol/ml | 3.73 ×10⁻² mmol/ml | 3.73 ×10⁻² mmol/ml | 3.73 ×10⁻² mmol/ml | 3.73 ×10⁻² mmol/ml | 3.73 ×10⁻² mmol/ml | 3.73 ×10⁻² mmol/ml | 1.87 ×10⁻² mmol/ml
7 | COc1ccc2nc(NC(=O)CN/C(C)=C3\C(=O)C=C4Oc5c(C(C)=O)c(O)c(C)c(O)c5[C@@]4(C)C3=O)sc2c1 | 1.77 ×10⁻² mmol/ml | 14.95 ×10⁻² mmol/ml | 14.95 ×10⁻² mmol/ml | 14.95 ×10⁻² mmol/ml | 14.95 ×10⁻² mmol/ml | 14.95 ×10⁻² mmol/ml | 7.1 ×10⁻² mmol/ml | 14.95 ×10⁻² mmol/ml
8 | CC(=O)c1c(O)c(C)c(O)c2c1OC1=CC(=O)/C(=C(/C)NCC(=O)NC(CO)C(=O)O)C(=O)[C@@]12C (stereo not given in full) | 1.84 ×10⁻² mmol/ml | 3.69 ×10⁻² mmol/ml | 3.69 ×10⁻² mmol/ml | 3.69 ×10⁻² mmol/ml | 3.69 ×10⁻² mmol/ml | 3.69 ×10⁻² mmol/ml | 3.69 ×10⁻² mmol/ml | 3.69 ×10⁻² mmol/ml
9 | CC(=O)c1c(O)c(C)c(O)c2c1OC1=CC(=O)/C(=C(/C)NCCc3nnc(-c4ccccc4O)o3)C(=O)[C@@]12C | 1.51 ×10⁻² mmol/ml | 3.01 ×10⁻² mmol/ml | 3.01 ×10⁻² mmol/ml | 3.01 ×10⁻² mmol/ml | 3.01 ×10⁻² mmol/ml | 6.02 ×10⁻² mmol/ml | 3.01 ×10⁻² mmol/ml | 1.51 ×10⁻² mmol/ml
10 | CC(=O)c1c(O)c(C)c(O)c2c1OC1=CC(=O)/C(=C(/C)NCCn3c(=O)c(O)nc4ccccc43)C(=O)[C@@]12C | 1.82 ×10⁻² mmol/ml | 3.64 ×10⁻² mmol/ml | 3.64 ×10⁻² mmol/ml | 3.64 ×10⁻² mmol/ml | 7.28 ×10⁻² mmol/ml | 3.64 ×10⁻² mmol/ml | 3.64 ×10⁻² mmol/ml | 1.82 ×10⁻² mmol/ml
11 | CC(=O)c1c(O)c(C)c(O)c2c1OC1=CC(=O)/C(=C(/C)NCCS(N)(=O)=O)C(=O)[C@@]12C | 3.55 ×10⁻² mmol/ml | 7.1 ×10⁻² mmol/ml | 7.1 ×10⁻² mmol/ml | 7.1 ×10⁻² mmol/ml | 7.1 ×10⁻² mmol/ml | 7.1 ×10⁻² mmol/ml | 7.1 ×10⁻² mmol/ml | 3.55 ×10⁻² mmol/ml
12 | CC(=O)c1c(O)c(C)c(O)c2c1OC1=CC(=O)/C(=C(/C)NCC(=O)Nc3nccs3)C(=O)[C@@]12C | 3.72 ×10⁻² mmol/ml | 3.72 ×10⁻² mmol/ml | 3.72 ×10⁻² mmol/ml | 3.72 ×10⁻² mmol/ml | 3.72 ×10⁻² mmol/ml | 1.86 ×10⁻² mmol/ml | 3.72 ×10⁻² mmol/ml | 1.86 ×10⁻² mmol/ml
13 | COCCc1noc(CCN/C(C)=C2\C(=O)C=C3Oc4c(C(C)=O)c(O)c(C)c(O)c4[C@@]3(C)C2=O)n1 | 2.01 ×10⁻² mmol/ml | 4.02 ×10⁻² mmol/ml | 4.02 ×10⁻² mmol/ml | 4.02 ×10⁻² mmol/ml | 4.02 ×10⁻² mmol/ml | 4.02 ×10⁻² mmol/ml | 4.02 ×10⁻² mmol/ml | 2.01 ×10⁻² mmol/ml
14 | c1ccc(-c2ccc(C(c3ccccc3)n3ccnc3)cc2)cc1 (stereo not given) [BIFONAZOLE] | 80 ×10⁻² mmol/ml | 64 ×10⁻² mmol/ml | 64 ×10⁻² mmol/ml | 80 ×10⁻² mmol/ml | 48 ×10⁻² mmol/ml | 64 ×10⁻² mmol/ml | 64 ×10⁻² mmol/ml | 80 ×10⁻² mmol/ml
15 | CC(=O)N1CCN(c2ccc(OCC3COC(Cn4ccnc4)(c4ccc(Cl)cc4Cl)O3)cc2)CC1 (stereo not given) [KETOCONAZOLE] | 570 ×10⁻² mmol/ml | 95 ×10⁻² mmol/ml | 380 ×10⁻² mmol/ml | 95 ×10⁻² mmol/ml | 94 ×10⁻² mmol/ml | 95 ×10⁻² mmol/ml | 380 ×10⁻² mmol/ml | 95 ×10⁻² mmol/ml
